Data reported in patent US11453683B1, “KRas G12D inhibitors” (Mirati Therapeutics, Inc., priority 2019, dated 2022).
pIC50: −log10 of the molar value.

The compounds below were run on KRas G12D-mediated phosphorylation of ERK (assay: Inhibition of KRas G12D-mediated phosphorylation of ERK in AGS cells). Settings: Homo sapiens; AGS cells expressing G12D, 3 hours, phospho-ERK normalized to GAPDH.
Type: cell-based
Summary of the method: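 In-cell Western: p-ERK Thr202/Tyr204 signal over GAPDH, as % of DMSO control, with IC50 from a 4-parameter curve. AGS cells seeded 40,000/well for 12-14 h, exposed to compound 3 h at 0.5% DMSO final, then formaldehyde-fixed and methanol-permeabilized.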

Q: `NCC#Cc1cccc2cccc(-c3ncc4c(N5C[C@H]6CC[C@@H](C5)N6)nc(OCC56CCCN5CCC6)nc4c3F)c12` [Example 241, 3-(8-(4-((1R,5S)-3,8-diazabicyclo[3.2.1]octan-3-yl)-8-fluoro-2-((tetrahydro-1H-pyrrolizin-7a(5H)-yl)methoxy)pyrido[4,3-d]pyrimidin-7-yl)naphthalen-1-yl)prop-2-yn-1-amine] was tested. Which pIC50 did it give?
A: < 4.78

Q: With `CCC#Cc1cccc2cccc(-c3ncc4c(N5C[C@H]6CC[C@@H](C5)N6)nc(OCC56CCCN5CCC6)nc4c3F)c12` [Example 242, 4-((1R,5S)-3,8-diazabicyclo[3.2.1]octan-3-yl)-7-(8-(but-1-yn-1-yl)naphthalen-1-yl)-8-fluoro-2-((tetrahydro-1H-pyrrolizin-7a(5H)-yl)methoxy)pyrido[4,3-d]pyrimidine] as the compound, how does the pIC50 read?
A: < 4.78

Q: `C#Cc1cccc2cc(O)cc(-c3ncc4c(N5C[C@H]6CC[C@@H](C5)N6)nc(OC[C@@]56CCCN5C[C@H](F)C6)nc4c3F)c12` [Example 243, 4-(4-((1R,5S)-3,8-diazabicyclo[3.2.1]octan-3-yl)-8-fluoro-2-(((2R,7aS)-2-fluorohexahydro-1H-pyrrolizin-7a-yl)methoxy)pyrido[4,3-d]pyrimidin-7-yl)-5-ethynylnaphthalen-2-ol] was tested. Which pIC50 did it give?
A: 9.10

Q: `C#Cc1cccc2cc(O)cc(-c3ncc4c(N5C[C@H]6CC[C@@H](C5)N6)ncnc4c3F)c12` [Example 244, 4-(4-((1R,5S)-3,8-diazabicyclo[3.2.1]octan-3-yl)-8-fluoropyrido[4,3-d]pyrimidin-7-yl)-5-ethynylnaphthalen-2-ol] was tested. Which pIC50 did it give?
A: 6.12

Q: With `Oc1cc(-c2ncc3c(N4C[C@H]5CC[C@@H](C4)N5)nc(OCC45CCCN4CCC5)nc3c2F)c2c(Cl)c(F)ccc2c1` [Example 245, 4-(4-((1R,5S)-3,8-diazabicyclo[3.2.1]octan-3-yl)-8-fluoro-2-((hexahydro-1H-pyrrolizin-7a-yl)methoxy)pyrido[4,3-d]pyrimidin-7-yl)-5-chloro-6-fluoronaphthalen-2-ol] as the compound, how does the pIC50 read?
A: 7.63

Q: With `Oc1cc(-c2ncc3c(N4C[C@H]5CC[C@@H](C4)N5)nc(OC[C@@]45CCCN4C[C@H](F)C5)nc3c2F)c2c(F)c(F)ccc2c1` [Example 246, 4-(4-((1R,5S)-3,8-diazabicyclo[3.2.1]octan-3-yl)-8-fluoro-2-(((2R,7aS)-2-fluorohexahydro-1H-pyrrolizin-7a-yl)methoxy)pyrido[4,3-d]pyrimidin-7-yl)-5,6-difluoronaphthalen-2-ol] as the compound, how does the pIC50 read?
A: 9.00

Q: `Fc1c(-c2cccc3cccc(CC(F)F)c23)ncc2c(N3C[C@H]4CC[C@@H](C3)N4)nc(OCC34CCCN3CCC4)nc12` [Example 247, 4-((1R,5S)-3,8-diazabicyclo[3.2.1]octan-3-yl)-7-(8-(2,2-difluoroethyl)naphthalen-1-yl)-8-fluoro-2-((hexahydro-1H-pyrrolizin-7a-yl)methoxy)pyrido[4,3-d]pyrimidine] was tested. Which pIC50 did it give?
A: 5.37

Q: With `FCCc1cccc2cccc(-c3ncc4c(N5C[C@H]6CC[C@@H](C5)N6)nc(OCC56CCCN5CCC6)nc4c3F)c12` [Example 248, 4-((1R,5S)-3,8-diazabicyclo[3.2.1]octan-3-yl)-8-fluoro-7-(8-(2-fluoroethyl)naphthalen-1-yl)-2-((tetrahydro-1H-pyrrolizin-7a(5H)-yl)methoxy)pyrido[4,3-d]pyrimidine] as the compound, how does the pIC50 read?
A: 5.97

Q: How did the pIC50 turn out when `Cc1cc2[nH]ncc2c(-c2ncc3c(N4C[C@H]5CC[C@@H](C4)N5)nc(OCC45CCCN4CCC5)nc3c2F)c1C` [Example 249, 4-((1R,5S)-3,8-diazabicyclo[3.2.1]octan-3-yl)-7-(5,6-dimethyl-1H-indazol-4-yl)-8-fluoro-2-((hexahydro-1H-pyrrolizin-7a-yl)methoxy)pyrido[4,3-d]pyrimidine] was run?
A: 5.11

Q: `Cc1cc2[nH]ccc2c(-c2ncc3c(N4C[C@H]5CC[C@@H](C4)N5)nc(OCC45CCCN4CCC5)nc3c2F)c1C` [Example 250, 4-((1R,5S)-3,8-diazabicyclo[3.2.1]octan-3-yl)-7-(5,6-dimethyl-1H-indol-4-yl)-8-fluoro-2-((hexahydro-1H-pyrrolizin-7a-yl)methoxy)pyrido[4,3-d]pyrimidine] was tested. Which pIC50 did it give?
A: 5.13
